According to ChEMBL document CHEMBL1201862, “PubChem BioAssay data set” (2004):
Several values for one entry are separate records, joined by “and”; a condition that tells them apart may be missing. Equal values may be shown once. Activity calls are given as the source filed them.

What was measured:
[1] = molecular target: Lysosomal acid glucosylceramidase (Homo sapiens, UniProt P04062); assay: Dose response cell-based high throughput screening assay to identify enhancers of beta-glucosidase activity. [Related pubchem assays: 784 ]; format: functional
SUMO-activating enzyme [2] = molecular target: T1, SUMO-activating enzyme (Homo sapiens, UniProt Q9UBT2); assay: blockers of UBC9-mediated SUMO conjugation – biochemical, AlphaScreen, SUMOylation inhibitor project, confirmation (AID 2018); format: functional
[3] = viability loss in THP-1 monocytes – THP-1 cells, cytotoxicity control for Vif-APOBEC3G degradation inhibitor project, dose response (AID 1117359); format: functional; settings: THP-1
[4] = molecular target: Serine/threonine-protein phosphatase PP1-alpha catalytic subunit (Homo sapiens, UniProt P62136); assay: inhibition of protein phosphatase 1 activity – biochemical, fluorescence, dose response (AID 2403);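 also: phosphatase turnover of OMFP into fluorescent 3-O-methylfluorescein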
cells = format: functional
[5] = Vero E6 cell cytotoxicity, dose response, cytotoxicity control for non-replicating M. tuberculosis project, secondary assay (AID 492998); format: functional, VeroE6; settings: Vero C1008
[6] = HIV-1 Vif–A3G interaction blockers – biochemical, TR-FRET, GST-Vif 1-94, biotin-A3G peptide, dose response retest, primary screen (AID 1117319); format: functional;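 also: TR-FRET signal of purified GST-Vif binding a biotinylated A3G peptide; inhibitors lower the FRET signal by blocking Vif and A3G binding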
SUMO-activating enzyme [7] = molecular target: T1, SUMO-activating enzyme; assay: blockers of SAE1/SAE2–UBC9 SUMO transfer – biochemical, HTRF, uHTS, primary screen (AID 2006); format: protein-complex assay
[8] = molecular target: Serine/threonine-protein phosphatase (Homo sapiens, UniProt Q9BPW0); assay: Counterscreen for inhibitors of PP1: fluorescence-based biochemical high throughput dose response assay to identify inhibitors of Protein Phosphatase 5 (PP5). [Related pubchem assays: 2034 (Summary (PP5 inhibitors)), 1987 (PP5 inhibitors in singlate), 2235 (PP1 inhibitors in singlate)]
[9] = THP-1 cell cytotoxicity, dose response, cytotoxicity control for non-replicating M. tuberculosis project (AID 489025); format: functional
Staphylococcus aureus = assay: Inhibitors of Bacterial Quorum Sensing Structure Activity Relationship (SAR) Analysis: Dose Response Assay. [Related pubchem assays: 700, 527 ]; format: functional, organism-based
Cytochrome P450 3A4 = Cytochrome P450 3A4 (Homo sapiens, UniProt P08684); settings: Potency;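 also: confirmatory qHTS run detecting inhibitors and substrates of CYP3A4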
Cytochrome P450 2C9 = Cytochrome P450 2C9 (Homo sapiens, UniProt P11712); settings: Potency
[10] = molecular target: T2, Eukaryotic translation initiation factor 2-alpha kinase 3 (Homo sapiens, UniProt Q9NZJ5); assay: Counterscreen assay for PERK inhibitors: Dose response cell-based high throughput screening assay to measure inhibition of PERK at 6 hours. [Related pubchem assays: 1522, 1416 ]; format: functional
[11] = molecular target: T2, Eukaryotic translation initiation factor 2-alpha kinase 3; assay: Dose response cell-based high-throughput screening assay to measure PERK inhibition. [Related pubchem assays: 1416 ]; format: functional
[12] = CCR5-tropic HIV-1 fusion blockers – cell-based, CCR5-tropic Env, dose response (AID 2279); format: functional
[13] = molecular target: T3, Dual specificity protein phosphatase 6 (Rattus norvegicus, UniProt Q64346); format: functional
T3 sequence (Q64346 whole entry): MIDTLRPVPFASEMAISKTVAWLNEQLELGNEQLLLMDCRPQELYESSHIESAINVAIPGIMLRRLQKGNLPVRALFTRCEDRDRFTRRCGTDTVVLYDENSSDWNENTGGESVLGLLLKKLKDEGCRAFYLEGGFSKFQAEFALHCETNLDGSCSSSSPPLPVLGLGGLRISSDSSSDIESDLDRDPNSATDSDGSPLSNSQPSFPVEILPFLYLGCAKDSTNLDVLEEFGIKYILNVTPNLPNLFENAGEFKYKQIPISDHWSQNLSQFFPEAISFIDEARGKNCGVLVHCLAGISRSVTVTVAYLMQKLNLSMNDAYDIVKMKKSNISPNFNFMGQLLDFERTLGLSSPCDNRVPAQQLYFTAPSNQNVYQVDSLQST

[14] = molecular target: T4, Tyrosine-protein phosphatase non-receptor type 7 (Homo sapiens, UniProt P35236); format: functional
T4 sequence (P35236 whole entry): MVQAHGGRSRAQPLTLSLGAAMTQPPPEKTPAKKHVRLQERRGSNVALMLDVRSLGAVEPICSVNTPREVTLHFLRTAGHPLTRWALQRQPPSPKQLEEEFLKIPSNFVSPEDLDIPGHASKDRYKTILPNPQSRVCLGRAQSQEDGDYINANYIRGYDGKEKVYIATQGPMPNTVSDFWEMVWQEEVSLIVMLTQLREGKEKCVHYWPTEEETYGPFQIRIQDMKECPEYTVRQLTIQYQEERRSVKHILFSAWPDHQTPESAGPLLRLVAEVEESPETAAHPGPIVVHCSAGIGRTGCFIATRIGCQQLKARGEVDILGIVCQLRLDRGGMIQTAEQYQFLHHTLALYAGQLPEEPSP

[15] = molecular target: Eukaryotic translation initiation factor 4E (Mus musculus, UniProt P63073); assay: blockers of eIF4G binding by eIF4E – biochemical, TR-FRET, dose response (AID 855); format: functional;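 also: potency for disrupting eIF4E binding to eIF4GI seen as loss of FRET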
[16] = molecular target: T3, Dual specificity protein phosphatase 6
[17] = molecular target: Heat shock 70 kDa protein 1A (Homo sapiens, UniProt P0DMV8); assay: inhibition of Hsp70 binding activity – biochemical, fluorescence polarization, SAR follow-up (AID 1072)
[18] = molecular target: T5, Voltage-gated N-type calcium channel alpha-1B subunit/Amyloid beta A4 precursor protein-binding family A member 1 (Homo sapiens, UniProt Q00975+Q02410); format: protein assay
[19] = molecular target: T6, Tyrosine-protein phosphatase non-receptor type 22 (Homo sapiens, UniProt Q9Y2R2); format: functional
T6 sequence (Q9Y2R2 whole entry): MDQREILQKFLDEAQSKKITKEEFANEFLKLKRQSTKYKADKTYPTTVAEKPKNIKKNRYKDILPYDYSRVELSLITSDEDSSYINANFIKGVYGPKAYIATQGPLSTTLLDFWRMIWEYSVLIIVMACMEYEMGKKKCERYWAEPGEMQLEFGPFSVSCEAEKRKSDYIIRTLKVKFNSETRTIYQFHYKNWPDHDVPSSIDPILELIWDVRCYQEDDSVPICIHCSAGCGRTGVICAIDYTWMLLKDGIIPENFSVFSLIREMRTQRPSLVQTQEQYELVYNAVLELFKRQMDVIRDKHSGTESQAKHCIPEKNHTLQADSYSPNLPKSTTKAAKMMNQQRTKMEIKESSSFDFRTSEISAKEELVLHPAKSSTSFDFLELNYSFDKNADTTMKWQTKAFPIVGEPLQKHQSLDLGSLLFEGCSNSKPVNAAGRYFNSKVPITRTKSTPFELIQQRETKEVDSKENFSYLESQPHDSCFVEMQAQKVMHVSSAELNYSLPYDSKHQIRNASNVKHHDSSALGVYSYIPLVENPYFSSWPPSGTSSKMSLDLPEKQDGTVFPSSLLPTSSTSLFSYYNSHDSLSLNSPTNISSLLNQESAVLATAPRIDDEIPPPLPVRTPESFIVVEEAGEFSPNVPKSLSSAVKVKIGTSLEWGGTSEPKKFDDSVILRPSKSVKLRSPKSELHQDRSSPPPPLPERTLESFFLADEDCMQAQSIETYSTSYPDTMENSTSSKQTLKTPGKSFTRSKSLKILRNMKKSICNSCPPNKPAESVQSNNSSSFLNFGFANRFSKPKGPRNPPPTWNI

[20] = molecular target: Heat shock cognate 71 kDa protein (Homo sapiens, UniProt P11142); assay: In Vitro Hsc70 Dose Response Fluorescence Polarization Assay. [Related pubchem assays: 1072 ]
[21] = molecular target: T6, Tyrosine-protein phosphatase non-receptor type 22; format: functional; remark: listed apart in the source
[22] = molecular target: T5, Voltage-gated N-type calcium channel alpha-1B subunit/Amyloid beta A4 precursor protein-binding family A member 1; format: protein assay; remark: listed apart in the source
[23] = molecular target: T4, Tyrosine-protein phosphatase non-receptor type 7; format: functional; remark: listed apart in the source
Genome polyprotein = Genome polyprotein (Hepatitis C virus, UniProt Q2Q167); assay: disruption of hepatitis C core self-association – biochemical, TR-FRET, dose response (AID 2159); parameters: species or system Hepacivirus hominis;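 also: blocks dimerization of HCV core protein measured by TR-FRET between tagged core106 pairs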
[24] = molecular target: Glyceraldehyde-3-phosphate dehydrogenase (Homo sapiens, UniProt P04406)
Estrogen receptor beta = Estrogen receptor beta (Homo sapiens, UniProt Q92731); assay: blockers of SRC-3 recruitment to ERβ – biochemical, ELISA, streptavidin-HRP readout, orthogonal assay, confirmation (AID 1060)
[25] = viability loss in Vero cells – cytotoxicity control for Vif-APOBEC3G degradation inhibitor project, dose response (AID 1117358); format: functional; settings: Vero
NS3 = NS3 (Hepatitis C virus, UniProt A3EZJ3); assay: PubChem AID 2173; parameters: species or system Hepacivirus hominis
[26] = molecular target: T3, Dual specificity protein phosphatase 6; assay: inhibition of rat DUSP6 enzyme activity – biochemical, in vitro, primary screen (AID 425)
[27] = Counterscreen for IDE inhibitors: Luminescence-based cell-based high throughput dose response assay to identify compounds that are cytotoxic to HEK cells. [Related pubchem assays: 434962 (Primary screen (IDE inhibitors in singlicate)), 449730 (Counterscreen (Cytotoxicity in triplicate)), 435028 (Confirmation (IDE inhibitors in triplicate)) …; format: functional; settings: HEK293
[28] = mRNA 3' processing disruption, beta-gal signal increase – luminescence, S. cerevisiae SKY197-pL101, dose response (AID 2525); format: functional, cell-based
Prothrombin = Prothrombin (Homo sapiens, UniProt P00734); assay: Thrombin 1536 HTS Dose Response Confirmation. [Related pubchem assays: 1046 (Thrombin 1536 HTS; hits were confirmed in this assay)]; format: functional
[29] = luciferase reporter signal suppression in cells – H4 neuroglioma cells, luminescence, dose response (AID 1990); format: functional, cell-based
[30] = alpha-synuclein stem-loop luciferase translation blockers – H4 neuroglioma cells, luminescence, confirmation (AID 1988); format: functional, cell-based
[31] = Luminescence Cell-Based Dose Response HTS to Identify Inhibitors of 5'UTR Stem-Loop Driven Prion Protein mRNA Translation in H4 Neuroglioblastoma Cells. [Related pubchem assays: 1827 (Project Summary), 1813 (Primary HTS)]; format: functional
[32] = molecular target: T7, Alkaline phosphatase, tissue-nonspecific isozyme (Homo sapiens, UniProt P05186)
T7 sequence (P05186 whole entry): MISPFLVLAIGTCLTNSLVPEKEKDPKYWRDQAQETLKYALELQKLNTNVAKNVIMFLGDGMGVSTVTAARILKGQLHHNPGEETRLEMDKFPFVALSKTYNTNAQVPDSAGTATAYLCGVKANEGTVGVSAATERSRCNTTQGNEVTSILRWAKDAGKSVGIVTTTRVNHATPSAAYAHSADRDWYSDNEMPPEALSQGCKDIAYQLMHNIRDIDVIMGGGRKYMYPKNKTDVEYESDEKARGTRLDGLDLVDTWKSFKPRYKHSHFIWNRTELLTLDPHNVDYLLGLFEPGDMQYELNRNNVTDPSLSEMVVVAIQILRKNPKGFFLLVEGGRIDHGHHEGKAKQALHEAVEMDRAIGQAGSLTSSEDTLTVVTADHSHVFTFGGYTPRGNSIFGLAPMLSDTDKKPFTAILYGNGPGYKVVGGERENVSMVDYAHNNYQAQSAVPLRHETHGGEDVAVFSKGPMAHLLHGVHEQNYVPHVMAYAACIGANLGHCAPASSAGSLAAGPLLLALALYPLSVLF

T5 sequence (Q00975 whole entry): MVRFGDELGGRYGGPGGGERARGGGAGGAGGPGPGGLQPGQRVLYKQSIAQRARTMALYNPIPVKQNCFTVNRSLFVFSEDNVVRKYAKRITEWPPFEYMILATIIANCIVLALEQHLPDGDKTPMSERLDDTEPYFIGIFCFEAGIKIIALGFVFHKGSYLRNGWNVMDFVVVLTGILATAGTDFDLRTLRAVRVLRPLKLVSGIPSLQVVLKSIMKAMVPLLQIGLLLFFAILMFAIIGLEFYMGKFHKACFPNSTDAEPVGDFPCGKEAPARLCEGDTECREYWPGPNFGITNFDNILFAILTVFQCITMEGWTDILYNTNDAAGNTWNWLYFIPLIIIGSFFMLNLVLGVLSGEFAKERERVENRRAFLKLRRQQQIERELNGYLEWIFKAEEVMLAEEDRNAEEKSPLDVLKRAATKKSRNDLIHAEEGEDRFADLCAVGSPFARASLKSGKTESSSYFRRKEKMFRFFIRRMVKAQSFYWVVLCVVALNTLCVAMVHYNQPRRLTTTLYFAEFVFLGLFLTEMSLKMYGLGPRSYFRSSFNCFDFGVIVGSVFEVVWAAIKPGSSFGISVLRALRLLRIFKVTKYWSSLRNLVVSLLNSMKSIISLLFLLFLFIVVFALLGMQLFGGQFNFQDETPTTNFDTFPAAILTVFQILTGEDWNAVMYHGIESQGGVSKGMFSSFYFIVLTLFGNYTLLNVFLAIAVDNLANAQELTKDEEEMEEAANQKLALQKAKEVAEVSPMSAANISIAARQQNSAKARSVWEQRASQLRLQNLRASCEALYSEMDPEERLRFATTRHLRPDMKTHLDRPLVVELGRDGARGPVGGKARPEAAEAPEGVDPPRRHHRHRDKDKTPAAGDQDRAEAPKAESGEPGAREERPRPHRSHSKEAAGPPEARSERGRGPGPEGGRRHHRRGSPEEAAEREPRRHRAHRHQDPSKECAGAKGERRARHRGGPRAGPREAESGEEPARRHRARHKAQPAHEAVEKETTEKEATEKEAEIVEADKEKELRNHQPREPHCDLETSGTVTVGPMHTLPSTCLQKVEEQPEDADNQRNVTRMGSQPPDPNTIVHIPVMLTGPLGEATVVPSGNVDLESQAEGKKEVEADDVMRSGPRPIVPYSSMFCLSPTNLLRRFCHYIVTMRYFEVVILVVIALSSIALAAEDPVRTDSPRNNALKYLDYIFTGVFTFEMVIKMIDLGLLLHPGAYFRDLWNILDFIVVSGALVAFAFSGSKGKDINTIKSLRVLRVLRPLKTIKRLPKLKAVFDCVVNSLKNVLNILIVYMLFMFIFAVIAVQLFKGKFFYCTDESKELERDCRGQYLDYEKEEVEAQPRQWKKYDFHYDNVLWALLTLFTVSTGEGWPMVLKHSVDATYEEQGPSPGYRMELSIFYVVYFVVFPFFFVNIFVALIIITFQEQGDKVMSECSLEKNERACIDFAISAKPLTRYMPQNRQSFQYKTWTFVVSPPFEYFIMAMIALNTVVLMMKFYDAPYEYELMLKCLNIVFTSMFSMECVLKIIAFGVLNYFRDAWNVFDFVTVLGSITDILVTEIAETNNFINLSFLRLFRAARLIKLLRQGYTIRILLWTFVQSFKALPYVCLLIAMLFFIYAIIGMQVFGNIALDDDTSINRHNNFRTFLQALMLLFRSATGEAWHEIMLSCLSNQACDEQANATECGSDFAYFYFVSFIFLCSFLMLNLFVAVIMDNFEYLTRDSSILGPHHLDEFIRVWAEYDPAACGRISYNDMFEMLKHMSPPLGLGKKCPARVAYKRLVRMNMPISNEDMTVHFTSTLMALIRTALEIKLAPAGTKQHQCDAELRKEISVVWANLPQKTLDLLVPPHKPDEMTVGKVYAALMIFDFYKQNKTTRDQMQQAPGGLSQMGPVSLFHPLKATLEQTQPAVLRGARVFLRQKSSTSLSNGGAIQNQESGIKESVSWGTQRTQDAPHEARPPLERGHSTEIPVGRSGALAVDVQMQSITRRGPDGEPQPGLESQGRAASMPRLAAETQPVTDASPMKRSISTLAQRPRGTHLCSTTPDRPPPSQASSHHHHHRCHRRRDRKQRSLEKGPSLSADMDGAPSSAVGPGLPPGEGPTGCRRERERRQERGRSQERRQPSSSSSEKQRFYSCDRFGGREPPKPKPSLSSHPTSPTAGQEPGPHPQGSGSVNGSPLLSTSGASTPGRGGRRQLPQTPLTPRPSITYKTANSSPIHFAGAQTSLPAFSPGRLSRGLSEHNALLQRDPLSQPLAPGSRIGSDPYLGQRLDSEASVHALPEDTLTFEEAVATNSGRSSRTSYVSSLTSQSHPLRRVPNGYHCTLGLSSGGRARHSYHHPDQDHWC
T5 sequence (Q02410 whole entry): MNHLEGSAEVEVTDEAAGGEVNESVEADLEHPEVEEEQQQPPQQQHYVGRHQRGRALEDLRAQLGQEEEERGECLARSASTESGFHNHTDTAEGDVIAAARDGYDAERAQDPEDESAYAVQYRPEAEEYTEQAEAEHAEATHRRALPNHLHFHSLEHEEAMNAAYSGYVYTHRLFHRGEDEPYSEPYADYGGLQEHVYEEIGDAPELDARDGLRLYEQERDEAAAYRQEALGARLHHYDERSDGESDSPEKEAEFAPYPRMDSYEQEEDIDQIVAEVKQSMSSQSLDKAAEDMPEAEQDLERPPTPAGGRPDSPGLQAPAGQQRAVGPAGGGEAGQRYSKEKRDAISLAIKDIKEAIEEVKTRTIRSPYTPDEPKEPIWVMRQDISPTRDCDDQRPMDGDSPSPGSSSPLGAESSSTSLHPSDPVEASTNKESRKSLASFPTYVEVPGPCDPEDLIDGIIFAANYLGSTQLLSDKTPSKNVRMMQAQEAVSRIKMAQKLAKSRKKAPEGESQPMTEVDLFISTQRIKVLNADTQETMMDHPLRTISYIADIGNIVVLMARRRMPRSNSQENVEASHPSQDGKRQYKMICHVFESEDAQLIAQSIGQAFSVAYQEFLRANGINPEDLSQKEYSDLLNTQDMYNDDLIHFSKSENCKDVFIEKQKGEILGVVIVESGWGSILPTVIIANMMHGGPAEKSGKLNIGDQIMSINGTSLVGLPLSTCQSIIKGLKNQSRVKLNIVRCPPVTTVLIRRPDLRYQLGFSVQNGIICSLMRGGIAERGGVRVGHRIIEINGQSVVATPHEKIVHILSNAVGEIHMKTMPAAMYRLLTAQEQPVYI
T2 sequence (Q9NZJ5 whole entry): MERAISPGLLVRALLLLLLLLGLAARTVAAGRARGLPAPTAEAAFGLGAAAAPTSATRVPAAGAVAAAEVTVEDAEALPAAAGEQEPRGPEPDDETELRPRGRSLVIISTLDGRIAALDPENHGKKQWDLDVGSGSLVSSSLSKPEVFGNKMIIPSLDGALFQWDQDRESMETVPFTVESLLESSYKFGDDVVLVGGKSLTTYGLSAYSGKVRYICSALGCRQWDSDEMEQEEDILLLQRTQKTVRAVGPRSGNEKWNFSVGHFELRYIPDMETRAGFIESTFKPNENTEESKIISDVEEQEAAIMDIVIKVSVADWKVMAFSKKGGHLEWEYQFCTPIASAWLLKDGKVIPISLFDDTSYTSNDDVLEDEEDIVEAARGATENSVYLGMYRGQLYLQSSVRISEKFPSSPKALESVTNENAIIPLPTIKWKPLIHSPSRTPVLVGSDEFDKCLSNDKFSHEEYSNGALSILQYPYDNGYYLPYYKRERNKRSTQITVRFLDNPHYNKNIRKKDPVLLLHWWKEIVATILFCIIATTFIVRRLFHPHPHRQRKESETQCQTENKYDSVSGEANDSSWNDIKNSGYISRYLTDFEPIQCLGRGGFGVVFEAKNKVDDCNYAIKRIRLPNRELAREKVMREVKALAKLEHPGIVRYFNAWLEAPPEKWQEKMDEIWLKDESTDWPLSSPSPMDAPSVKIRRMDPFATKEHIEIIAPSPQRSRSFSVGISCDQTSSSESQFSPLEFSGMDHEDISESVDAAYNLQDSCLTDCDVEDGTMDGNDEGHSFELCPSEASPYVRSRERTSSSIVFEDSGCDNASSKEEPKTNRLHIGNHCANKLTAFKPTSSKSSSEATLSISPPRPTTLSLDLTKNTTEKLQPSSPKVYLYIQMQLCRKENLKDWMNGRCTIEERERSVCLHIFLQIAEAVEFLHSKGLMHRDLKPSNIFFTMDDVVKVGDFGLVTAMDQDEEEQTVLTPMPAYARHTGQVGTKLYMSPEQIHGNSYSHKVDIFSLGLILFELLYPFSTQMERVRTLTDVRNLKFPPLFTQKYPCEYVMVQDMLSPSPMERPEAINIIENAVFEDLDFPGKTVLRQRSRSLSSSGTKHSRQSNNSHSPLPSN
Chain of NS3 (A3EZJ3 whole entry): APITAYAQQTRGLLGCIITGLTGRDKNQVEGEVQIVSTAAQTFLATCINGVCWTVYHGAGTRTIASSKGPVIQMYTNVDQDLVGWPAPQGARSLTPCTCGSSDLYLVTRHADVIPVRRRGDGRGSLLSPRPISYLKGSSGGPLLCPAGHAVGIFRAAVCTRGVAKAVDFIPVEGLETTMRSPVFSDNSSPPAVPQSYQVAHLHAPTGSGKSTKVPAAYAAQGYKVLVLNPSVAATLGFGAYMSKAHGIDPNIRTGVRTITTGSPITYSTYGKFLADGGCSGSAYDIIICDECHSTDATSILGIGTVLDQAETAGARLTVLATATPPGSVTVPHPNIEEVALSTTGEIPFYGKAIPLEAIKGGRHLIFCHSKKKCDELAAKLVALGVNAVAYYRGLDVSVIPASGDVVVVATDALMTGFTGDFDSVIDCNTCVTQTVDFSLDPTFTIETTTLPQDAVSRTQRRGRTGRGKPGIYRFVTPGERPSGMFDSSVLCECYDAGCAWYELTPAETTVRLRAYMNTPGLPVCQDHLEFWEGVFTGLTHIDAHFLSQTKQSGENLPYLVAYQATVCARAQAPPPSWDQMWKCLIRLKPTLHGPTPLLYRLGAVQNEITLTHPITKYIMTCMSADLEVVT
Chain of Genome polyprotein (Q2Q167 whole entry): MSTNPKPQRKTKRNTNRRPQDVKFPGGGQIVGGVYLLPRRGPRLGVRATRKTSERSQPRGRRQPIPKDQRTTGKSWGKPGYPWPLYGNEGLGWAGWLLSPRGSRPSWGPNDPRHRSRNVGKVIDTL

Compound: CCC(Sc1nc(C)cc(O)n1)C(=O)Nc1nc2c(s1)CCCC2 (stereo not given)
- EC50 [1]: > 50 µM (not active)

Compound: O=C1NC(=O)C(=Cc2ccc(-c3cc(Cl)ccc3Cl)[nH]2)C(=O)N1
- IC50 (SUMO-activating enzyme [2]): 11.6 µM (active)
- CC50 [3]: > 40 µM (active)
- IC50 [4]: 5.6 µM (active)
- IC50 (cells): < 0.1 µM (active)
- CC50 [5]: > 20 µM (active)
- IC50 [6]: > 100 µM (active)
- IC50 (SUMO-activating enzyme [7]): 16.4 µM (active)
- IC50 [8]: > 67 µM (not active)
- CC50 [9]: 23.1 µM (active)

Compound: CSCCC(NC(=O)c1ccccc1)C(=O)OCC(=O)Nc1sc2c(c1C#N)CCCC2 (stereo not given)
- IC50 (Staphylococcus aureus): 0.44 µM (active)

Compound: CC1(C)CCC[C@@]2(C)[C@@H]1CC[C@]1(C)OC(=O)C[C@@H]21
- AC50 (Cytochrome P450 3A4): 20 µM (inconclusive)
- AC50 (Cytochrome P450 2C9): 39.8 µM (inconclusive)

Compound: COc1ccc(C(=O)NCC(=O)OC2CCCCC2=O)cc1 (stereo not given)
- EC50 [10]: > 55.7 µM (not active)
- EC50 [11]: > 55.7 µM (not active)

Compound: O=C(O)C1Nc2c(O)cccc2C2C=CCC12 (stereo not given)
- IC50 [12]: 29.4 µM (active)
- IC50 [13]: 7.38 µM (active) and 14.6 µM (active)
- IC50 [14]: 11.2 µM (active)
- IC50 [15]: 12.7 µM (active)
- IC50 [16]: 8.5 µM (active)
- IC50 [17]: 9.87 µM (active)
- IC50 [18]: 8.61 µM (active)
- IC50 [19]: 8.35 µM (active)
- IC50 [20]: 62 µM (active)
- IC50 [21]: 6.84 µM (active)
- IC50 [22]: 4.98 µM (active)
- IC50 [23]: 0.503 µM (active)
- IC50 (Genome polyprotein): > 49.8 µM (not active)
- IC50 [24]: 47.7 µM (active)
- IC50 (Estrogen receptor beta): > 50 µM (not active)
- CC50 [25]: > 40 µM (active)
- IC50 (NS3): 3.43 µM (active)
- IC50 [26]: > 10 µM (not active)

Compound: Oc1nc2ccccc2c(O)c1O
- IC50 [27]: 13.6 µM (not active)

Compound: N#C/C(=C/c1ccc([N+](=O)[O-])o1)c1nc2ccccc2[nH]1
- EC50 [28]: 3.08 µM (active)

Compound: CCn1c(C)nc2cc(C(=O)N/N=C(\C)c3ccc(OC)cc3O)ccc21
- IC50 (Prothrombin): > 50 µM (not active)
- EC50 [29]: 12.8 µM (active)
- EC50 [30]: 9.16 µM (active)
- EC50 [31]: 11.2 µM (active)
- EC50 [32]: > 100 µM (not active)
